Test [1] has as its system E. coli W3110hns-205::Tn10. In kind it is cell-based. Particulars: 3 mM, L-broth containing tetracycline, 37° C.; for Growth inhibition: semi-quantitative estimate. As for the experimental part:
A single E. coli colony (W3110 hns-205::Tn10) was picked from an L-agar plate containing tetracycline (10 μg ml^−1) and inoculated into 10 ml L-broth. This was grown overnight in a shaking incubator at 37° C. 200 μl of overnight culture was inoculated into 20 ml L-broth in a 50 ml conical flask, and grown at 37° C. in a shaking water bath to an optical density at 600 nm (OD600) of between 0.2 and 0.3. Two ml of this culture was inoculated into 18 ml pre-warmed L-broth containing tetracycline (10 μg ml^−1) to which had been added an appropriate volume of indole, isoquinoline, indoline, tryptamine, quinoline, or pyrrole stock solution (0.5 M in ethanol), IAA stock solution (0.5 M in water), 3-β-indoleacrylic acid stock solution (0.125 M in ethanol) or 1-acetylindoline stock solution (0.25 M in ethanol) to give a final concentration of 3 mM.

The subject of test [2] is W3110hns205 containing plasmid pCMT2bompAhGM-CSF. The test is described as follows: hGM-CSF expression in indole-treated cultures, ELISA of total cell lysates (FIG. 4). Particulars: for hGM-CSF production: 42° C., L-broth. Format: cell-based, E. coli. As for the experimental part:
For the experimentation for which results are shown in FIG. 4, W3110hns205 containing plasmid pCMT2bompAhGM-CSF^(see below) (which contains the coding sequence for the cytokine hGM-CSF fused to an ompA leader sequence, transcribed from promoter lambda PL under the control of the temperature sensitive repressor cI857) was grown in L-broth at 30° C. to an OD600 of 0.36, at which point the culture was transferred to 42° C. to induce cytokine expression. Simultaneously indole was added to the growth medium at final concentrations of 0, 2 or 4 mM (FIG. 4a).
Cytokine production was quantified by ELISA of total cell lysates and assay data were normalised for culture density (FIG. 4b). […] In the control culture (no indole), hGM-CSF increased in the first hour before declining.

For another test, the system named is W3110 hns205. The test is described as follows: Indole-induced quiescence of W3110 hns205 in broth culture (FIG. 2a, 2b, 3). Format: cell-based, E. coli. As for the experimental part: (§1) For the experimentation for which results are shown in FIG. 2a and FIG. 2b, W3110 and W3110hns-205 (Mukherjee et al., 2004) were cultured at 37° C. in tryptone water broth (Oxoid) supplemented with 0, 2 or 4 mM indole.
For the experimentation for which results are shown in FIG. 3a and FIG. 3b, W3110hns205 was cultured in L-broth at 30° C. (FIG. 3a) or 42° C. (FIG. 3b). At t=0 each culture was split into two and indole (final concentration 2 mM) was added to one part. […] The control cultures (no indole) continued to grow until they reached stationary phase.

Another test has as its system W3110hns-205 pcIts857. The test is described as follows: Comparison of indole- and Rcd-induced quiescence (FIG. 7). In kind it is cell-based, E. coli. Particulars: 42° C., L-broth. As for the experimental part: The experiment for which results are shown in FIG. 7 compared the growth kinetics of Rcd-induced and indole-induced quiescent cultures. Cultures of W3110hns-205 pcIts^857 (Remaut et al., 1983) transformed with either pRcd1 (Rcd expression plasmid; Mukherjee et al., 2004)) or pUCdeltalacZ (control plasmid; no Rcd) were grown in L-broth at 30° C. for 90 minutes, then 2×5 ml aliquots of each culture were transferred to 50 ml conical flasks, pre-warmed to 42° C. (t=0). The temperature shift induces Rcd expression in cultures containing plasmid pRcdl but not in cultures containing pUCdeltalacZ. For each pair of cultures, indole (final concentration 2 mM) was added to one of them. IPTG was added to all cultures so that the induction of chromosomal LacZ could be monitored. Culture density was monitored over the following 24 h.

Test [3] deals with W3110hns-205 containing pCMT2blacZ. The test is described as follows: Growth and beta-galactosidase (LacZ) expression in indole-treated culture (FIG. 5). Format: cell-based, E. coli. To be noted: 2 mM indole, 42° C. As for the experimental part: For the experimentation for which results are shown in FIGS. 5a and 5b, W3110hns-205 containing pCMT2blacZ (a plasmid which contains the coding sequence for beta-galactosidase, transcribed from promoter lambda PL under the control of the temperature sensitive repressor cI857) was grown in L-broth at 30° C. to OD600=0.15. The culture was then divided into two and the temperature was increased to 42° C. to induce lacZ expression. Indole (2 mM) was added immediately to one subculture to induce a quiescent state, while the other was an indole-free control. Beta-galactosidase activities were measured for 24 hours after the temperature shift.

The subject of another test is W3110 rnc-14. The test is described as follows: Indole-induced quiescence in an rnc mutant (FIG. 6). Particulars: 2 mM indole. Format: cell-based, E. coli. As for the experimental part:
For the experimentation for which results are shown in FIG. 6, a culture of W3110 rnc-14 was grown in L-broth at 37° C. to a density of OD600=0.15. The culture was divided into two (t=0) and indole (2 mM) was added to one of the sub-cultures. Growth of the cultures was measured over the following 27 hours. While the control culture eventually reached stationary phase at OD600=2, the indole-treated culture entered a non-growing state after approximately 7 hours and remained at a density of OD600=1 (approx.).

The next test deals with E. coli W3110. Put plainly: Growth of W3110 in tryptone water broth supplemented with indole (FIG. 2a). Particulars: 37° C. Format: cell-based. How it is done: as §1
The next test concerns E. coli gene mdtE. Particulars: 2 mM indole; cited from earlier work.
The test system of test [4] is E. coli W3110hns-205::Tn10. Format: cell-based. To be noted: L-broth containing tetracycline.
For another test, the system named is E. coli BW25113. Put plainly: Growth inhibition of E. coli BW25113 by indole in L-broth (FIG. 1). In kind it is cell-based. To be noted: 37° C. As for the experimental part: For the experimentation for which results are shown in FIG. 1, E. coli BW25113 (Datsenko & Wanner, 2000)was grown overnight at 37° C. in L-broth (Kennedy, 1971). The stationary phase culture was used to inoculate a series of L-broth cultures supplemented with indole (0-6 mM) and their growth was monitored over the next 7 hours.

“Also recorded” adds a separate entry of the source. Like-named read-outs stand apart in the source and are kept apart here.

With `CC(=O)N1CCc2ccccc21` [1-acetylindoline], the “effect on growth (in words)” value in [1] is on record as “substantial growth inhibition, but less severe than that shown by indole; also recorded: significant inhibitory effects”.
In the case of `O=C(O)/C=C/c1c[nH]c2ccccc12` [3-β-indoleacrylic acid], in test [1], the “effect on growth (in words)” value was “very similar effects to indole; also recorded: significant inhibitory effects” and the Growth inhibition entry is “+++”.
`O=C(O)Cc1c[nH]c2ccccc12` [IAA, indole-3-acetic acid]: the “effect on growth (in words)” value is “slight stimulation of growth” in [1] and “not observed to have a significant effect on growth” in test [1] (listed as indole acetic acid). In addition, the Growth inhibition result in test [1] is recorded as “−^b”.
As to `c1ccc2[nH]ccc2c1` [indole], the hGM-CSF production entry is “increased rapidly for the first hour” in [2] (2 mM indole, quiescent culture) and “produced no hGM-CSF” in test [2] (4 mM indole). Also, the “peak hGM-CSF concentration of control culture (no indole) relative to quiescent culture” value in [2] (2 mM indole, normalised for culture density) is recorded as “less than half”. The effect on growth result with W3110 hns205 (2 mM indole, L-broth) is on record as “enter a quiescent state”; in the test with W3110 hns205 (4 mM indole, L-broth), “complete growth inhibition”; with W3110 hns205 (4 mM indole, tryptone water broth, 37° C.) it was “almost complete inhibition of growth”; in the test on E. coli W3110 (2 mM indole), “partial growth inhibition; also recorded: reduced growth rate”; in the test on E. coli W3110 (4 mM indole) it was “inhibited growth severely; also recorded: completely inhibited growth”; in the test with E. coli BW25113 (1 mM indole) it was “growth inhibition was not evident; also recorded: no effect upon growth”. Also, the effect on growth entry in the test with E. coli BW25113 (2 or 3 mM indole) is listed as “partial inhibition; also recorded: slowing of the growth rate”; with E. coli BW25113 (4, 5 or 6 mM indole), “Growth inhibition was severe; also recorded: almost complete inhibition of growth”. Also, the induction of quiescence entry in the test on W3110 hns205 (2 mM indole, L-broth, 30° C. or 42° C.) is “induce quiescence; also recorded: entered the quiescent state with similar kinetics at both temperatures”; in the test on W3110hns-205 pcIts857 (2 mM indole plus Rcd expression (pRcd1)), “entered a quiescent state but more rapidly and reached a lower final density”; with W3110hns-205 pcIts857 (2 mM indole, no Rcd), “enter a quiescent state with similar growth kinetics; also recorded: entered a quiescent state”; in the test on W3110 rnc-14 it was “induce quiescence; also recorded: enters quiescence”. For the same compound, the “persistence of the quiescent state” value in the test on W3110 hns205 (2 mM indole, at 30° C., 37° C. and 42° C.) is recorded as “at least 24 hours”. Besides, the “appropriate final concentration of indole to induce quiescence” value with W3110 hns205 (shake-flask culture) is 2 mM. Further, the Growth inhibition result in test [1] is listed as “+++”. The “final OD600” value in [3] (L-broth) turned out to be 0.78. Also, the beta-galactosidase activity in [3] (after 24 h) was 27,000 MU. In addition, the “culture density OD600 in non-growing state” value with W3110 rnc-14 (L-broth, 37° C.) is reported as roughly 1. Moreover, the “time to enter a non-growing state” value in the test with W3110 rnc-14 (L-broth, 37° C.) is recorded as “approximately 7 hours”. Besides, the elevation of expression in the test on E. coli gene mdtE was 22 fold. Moreover, in test [4], the “minimum concentration which causes immediate growth inhibition” value was 3 mM.
In the case of `c1ccc2c(c1)CCN2` [indoline], the “effect on growth (in words)” value in test [1] is listed as “some inhibition of growth but their effect was less severe than indole”; in [1] (listed as Indoline), “slight growth inhibition”.
As to `c1ccc2cnccc2c1` [isoquinoline], in test [1], the “effect on growth (in words)” value is “very similar effects to indole; also recorded: significant inhibitory effects” and the Growth inhibition entry is on record as “+++”. Further, in test [1] (listed as Isoquinoline), the “effect on growth (in words)” value is reported as “very similar effects to indole”.
For `c1ccc2ncccc2c1` [quinoline], the “effect on growth (in words)” value was “significant inhibitory effects” in test [1] and “some inhibition of growth but their effect was less severe than indole; also recorded: substantial growth inhibition, but less severe than that shown by indole” in [1] (listed as Quinoline).
Take `NCCc1c[nH]c2ccccc12` [tryptamine]: the “effect on growth (in words)” value in test [1] is “some inhibition of growth but their effect was less severe than indole; also recorded: slight growth inhibition”.
As to pyrrole, in test [1], the “effect on growth (in words)” value is reported as “no observed inhibitory effect” and the Growth inhibition entry is listed as “−”. Moreover, the “effect on growth (in words)” value in test [1] (listed as Pyrrole) was “not observed to have a significant effect on growth”.

The values are drawn from US7790435B2, “Chemical induction in quiescence in bacteria” (priority 2005, dated 2010).
